Source: BindingDB's records for doi:10.1016/j.bmcl.2019.06.040 (Shenyang Pharmaceutical University, 2019)

These molecules were tested against T1, Cytochrome P450 11B2, mitochondrial (Homo sapiens, UniProt P19099) (assay: Inhibition of CYP11B2 (unknown origin)).
T1 sequence (P19099 whole entry): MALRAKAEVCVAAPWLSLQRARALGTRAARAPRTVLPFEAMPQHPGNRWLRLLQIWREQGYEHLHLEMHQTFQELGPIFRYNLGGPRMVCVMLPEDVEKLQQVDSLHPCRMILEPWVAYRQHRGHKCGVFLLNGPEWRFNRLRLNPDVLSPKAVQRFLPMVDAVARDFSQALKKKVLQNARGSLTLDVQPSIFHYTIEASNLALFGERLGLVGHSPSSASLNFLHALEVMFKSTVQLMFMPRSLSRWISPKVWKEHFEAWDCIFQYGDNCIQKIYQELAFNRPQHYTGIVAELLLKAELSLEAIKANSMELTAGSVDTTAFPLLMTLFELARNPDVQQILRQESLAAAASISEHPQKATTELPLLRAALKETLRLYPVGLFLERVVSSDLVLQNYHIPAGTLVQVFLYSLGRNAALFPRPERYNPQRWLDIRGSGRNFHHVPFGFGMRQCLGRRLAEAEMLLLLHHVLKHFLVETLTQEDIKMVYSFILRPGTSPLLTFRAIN

| IC50 [nM] | SMILES |
| --- | --- |
| 244 | Fc1cc2c(cc1-c1cccnc1)CCc1nncn1-2 |
| 172 | Fc1cc(-c2cccnc2)cc2c1-n1cnnc1CC2 |
| 131 | Cc1nnc2n1-c1cc(F)c(-c3cccnc3)cc1CC2 |
| 63 | Cc1nnc2n1-c1c(F)cc(-c3cccnc3)cc1CC2 |
